This note sets out measurements from PubChem BioAssay (NCI).

Some test systems named below: NCI-H23 lung; MDA-MB-435; HOP-62 NSCLC; K-562 leukemia; UACC-62 melanoma; MCF7 breast; SK-MEL-28 melanoma; OVCAR-8 ovarian; A549 NSCLC; PC-3 prostate.
Holding throughout (test): NCI-60 cell line screen, 48 h

“And” between values parts separate entries of the source, which are not always exact repeats. Identical values can stand only once.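 Step 1: Grow cells in 96-well plates. Step 2: Expose to compound for 48 hours at 5 concentrations. Step 3: Interpolate endpoints linearly; if unreached, use highest concentration. At the GI50, growth is halved. TGI: concentration producing complete growth inhibition.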

Take `O/N=C/C1C(OCc2ccccc2)C(OCc2ccccc2)C(OCc2ccccc2)CN1Cc1ccccc1` (stereo not given): the GI50 with NCI-H23 lung is 14.1 µM and 2.78 µM; in the assay with MDA-MB-435, 14.1 µM and 3.14 µM; in the assay on HOP-62 NSCLC, 17.8 µM and 45.4 µM; in the assay with MCF7 breast, 9.88 µM and 2.9 µM. Further, the TGI is 41.7 µM and 26.6 µM with NCI-H23 lung; 33.6 µM and 27.1 µM in the assay with MDA-MB-435; 53.1 µM and > 100 µM in the assay with HOP-62 NSCLC; 36.6 µM and > 100 µM with K-562 leukemia; 30.5 µM and > 100 µM in the assay with UACC-62 melanoma; 40.8 µM and 15.7 µM in the assay with MCF7 breast. Moreover, the TGI in the assay with SK-MEL-28 melanoma is 44.1 µM and > 100 µM; with OVCAR-8 ovarian it was 39.9 µM and > 100 µM; in the assay with A549 NSCLC it was 25 µM and > 100 µM.
In the case of `Cc1cc([N+](=O)[O-])ccc1Nc1cccc(Cl)c1C`, the TGI amounted to 33.3 µM in the assay on NCI-H23 lung; 28 µM in the assay on HOP-62 NSCLC; 33.8 µM in the assay with K-562 leukemia; 27.2 µM in the assay on UACC-62 melanoma; 32.1 µM in the assay with SK-MEL-28 melanoma; 30.3 µM in the assay with OVCAR-8 ovarian. Further, the TGI in the assay with A549 NSCLC turned out to be 40.2 µM.
Take `CCCN=C(N)NC#N`: the TGI in the assay on NCI-H23 lung, in the assay with HOP-62 NSCLC, in the assay on K-562 leukemia, in the assay with UACC-62 melanoma, with SK-MEL-28 melanoma and in the assay with OVCAR-8 ovarian was above 100 µM each time. Besides, in the assay on A549 NSCLC, the TGI is above 100 µM.
For the compound `O=c1[nH]c(=O)n(C2OC(CO)C(O)C2O)cc1NN=NCc1ccccc1` (stereo not given), the TGI in the assay on NCI-H23 lung, in the assay with HOP-62 NSCLC, with K-562 leukemia, in the assay with UACC-62 melanoma, in the assay with SK-MEL-28 melanoma and in the assay with OVCAR-8 ovarian was above 100 µM each time. Besides, the TGI in the assay with A549 NSCLC is above 100 µM.
On to `O=C(CCn1[nH]c(=O)c(Cl)c(Cl)c1=O)NO`, for which the TGI in the assay on NCI-H23 lung, with HOP-62 NSCLC, in the assay with K-562 leukemia, with UACC-62 melanoma, with SK-MEL-28 melanoma and in the assay on OVCAR-8 ovarian was above 100 µM throughout. Also, the TGI with A549 NSCLC was above 100 µM.
As to `Cc1ccc(Cc2c(=O)[nH]nc3ccccc23)cc1`, the TGI with NCI-H23 lung, in the assay on HOP-62 NSCLC, with K-562 leukemia, with UACC-62 melanoma, in the assay on SK-MEL-28 melanoma and in the assay with OVCAR-8 ovarian was above 100 µM each time. For the same compound, the TGI in the assay with A549 NSCLC is above 100 µM.
Turning to `CC(C)(C)CC(C)(C)c1cc2c(O)c(c1)Cc1cc(C(C)(C)CC(C)(C)C)cc(c1O)Cc1cc(C(C)(C)CC(C)(C)C)cc(c1O)Cc1cc(C(C)(C)CC(C)(C)C)cc(c1O)C2`, the TGI with NCI-H23 lung, in the assay on HOP-62 NSCLC, with K-562 leukemia, with UACC-62 melanoma, in the assay with SK-MEL-28 melanoma and in the assay with OVCAR-8 ovarian was above 100 µM throughout. The compound also had a TGI with A549 NSCLC above 100 µM.
`CCCCC(C(=O)C(=O)NC1C2CC3CC(C2)CC1C3)C(=O)C(C)C` (stereo not given): the TGI in the assay with NCI-H23 lung, in the assay with HOP-62 NSCLC, with K-562 leukemia, in the assay with UACC-62 melanoma, in the assay on SK-MEL-28 melanoma and in the assay with OVCAR-8 ovarian was above 100 µM throughout. The compound further showed a TGI in the assay with A549 NSCLC above 100 µM.
As to `CN(C)/C=N/c1nc2c(ncn2C2OC(CO)C(O)C2O)c(=O)[nH]1` (stereo not given), the TGI with NCI-H23 lung, with HOP-62 NSCLC, with K-562 leukemia, in the assay on UACC-62 melanoma, in the assay with OVCAR-8 ovarian and in the assay on A549 NSCLC was above 100 µM throughout.
As to `CN(C)c1ccc(C(C=C2c3ccccc3Sc3ccccc32)=C(C#N)C#N)cc1`, the TGI with NCI-H23 lung, in the assay on HOP-62 NSCLC, in the assay with K-562 leukemia, with UACC-62 melanoma, in the assay on SK-MEL-28 melanoma and in the assay on OVCAR-8 ovarian was above 100 µM in each case. For the same compound, in the assay on A549 NSCLC, the TGI was above 100 µM.
As for `Cc1cc(CC(O)c2ccc(Cl)c(Cl)c2)nc(=O)[nH]1` (stereo not given), the TGI with NCI-H23 lung is above 100 µM; in the assay on HOP-62 NSCLC it was 86.5 µM; with K-562 leukemia, above 100 µM; in the assay with UACC-62 melanoma it was above 100 µM; in the assay on SK-MEL-28 melanoma, above 100 µM; in the assay with OVCAR-8 ovarian, above 100 µM. In the assay on A549 NSCLC, the TGI was 66 µM.
Take `N#Cc1nc(Nc2cccc3ccccc23)sc1N`: the TGI in the assay with NCI-H23 lung is 47.2 µM; in the assay on HOP-62 NSCLC, above 100 µM; with K-562 leukemia, above 100 µM; in the assay on UACC-62 melanoma it was 59 µM; in the assay on SK-MEL-28 melanoma, above 100 µM; in the assay on OVCAR-8 ovarian it was above 100 µM. The TGI with A549 NSCLC is above 100 µM.
`COC(=O)c1cc2c(s1)C(=O)c1ccccc1-2`: the TGI in the assay on NCI-H23 lung, with HOP-62 NSCLC, with K-562 leukemia, in the assay with UACC-62 melanoma, in the assay with SK-MEL-28 melanoma and in the assay on OVCAR-8 ovarian was above 100 µM each time. Moreover, the TGI in the assay with A549 NSCLC was above 100 µM.
With `Cc1nn(-c2ccccc2)c2nc(N3CCOCC3)nnc12`, the TGI with NCI-H23 lung, with HOP-62 NSCLC, in the assay with K-562 leukemia, in the assay with UACC-62 melanoma, with SK-MEL-28 melanoma and in the assay with OVCAR-8 ovarian was above 100 µM each time. This compound also yielded a TGI in the assay on A549 NSCLC above 100 µM.
On to `Cc1ccc(S(=O)(=O)N(CC(=O)O)c2ccccc2)cc1`, for which the TGI in the assay with NCI-H23 lung, in the assay on K-562 leukemia, in the assay with UACC-62 melanoma, in the assay on SK-MEL-28 melanoma, in the assay on OVCAR-8 ovarian and with A549 NSCLC was above 100 µM in each case.
In the case of `CC(C)c1ccc2c(c1)CC[C@@H]1[C@@](C)(C(=O)O)CCC[C@]21C`, the GI50 was 7.62 µM in the assay with PC-3 prostate; 10.9 µM in the assay on MDA-MB-435; 10.8 µM in the assay on HOP-62 NSCLC; 2500 nM in the assay on K-562 leukemia; 4.87 µM with UACC-62 melanoma; 5.8 µM with SK-MEL-28 melanoma. Moreover, the GI50 in the assay with OVCAR-8 ovarian is 2160 nM; in the assay with A549 NSCLC it was 5.56 µM. In addition, the TGI in the assay on PC-3 prostate came out at 82.6 µM; with MDA-MB-435, 29.5 µM; with HOP-62 NSCLC, 22.7 µM; with K-562 leukemia it was 9.2 µM; with UACC-62 melanoma it was 18.4 µM; in the assay with SK-MEL-28 melanoma, 22.3 µM. Further, the TGI in the assay with OVCAR-8 ovarian came to 7.87 µM; with A549 NSCLC, 25 µM.
